From article PMC7248877, “Synthesis and Spectral Identification of Three Schiff Bases with a 2-(Piperazin-1-yl)-N-(thiophen-2-yl methylene)ethanamine Moiety Acting as Novel Pancreatic Lipase Inhibitors: Thermal, DFT, Antioxidant, Antibacterial, and Molecular Docking Investigations” (Molecules, 2020) come the findings set out here.

This assay addresses T1, porcine pancreatic lipase (Sus scrofa, UniProt P00591).
T1 construct: gene PNLIP
T1 sequence (P00591 1-450): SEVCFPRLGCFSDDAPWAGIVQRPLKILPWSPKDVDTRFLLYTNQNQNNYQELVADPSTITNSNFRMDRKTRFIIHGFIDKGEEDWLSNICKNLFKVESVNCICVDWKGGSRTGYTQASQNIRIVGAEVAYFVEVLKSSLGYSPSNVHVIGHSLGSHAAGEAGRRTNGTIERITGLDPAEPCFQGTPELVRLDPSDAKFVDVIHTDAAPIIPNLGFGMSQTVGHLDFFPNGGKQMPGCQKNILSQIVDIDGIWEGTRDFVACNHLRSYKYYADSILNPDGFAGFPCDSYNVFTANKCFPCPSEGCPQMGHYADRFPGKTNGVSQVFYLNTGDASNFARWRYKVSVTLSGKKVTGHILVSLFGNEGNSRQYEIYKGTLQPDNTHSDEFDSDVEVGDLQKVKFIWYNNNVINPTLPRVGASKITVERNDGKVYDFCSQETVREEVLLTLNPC
Briefly: p-nitrophenyl butyrate hydrolysis assay, absorbance at […] nm. The class given is biochemical.

Regarding `C(=N\CCN1CCNCC1)/c1cccs1` [L2, 2-(Piperazin-1-yl)-N-(thiophen-2-ylmethylene)ethanamine], the IC50 is 2.24 mM.

In turn, `CC(=NCCN1CCNCC1)c1ccc(Cl)s1` [L1, N-(1-(5-Chlorothiophen-2-yl)ethylidene)-2-(piperazin-1-yl)ethanamine] had an IC50 of 1.16 mM.

In the case of `Brc1ccc(C=NCCN2CCNCC2)s1` [L3, N-((5-Bromothiophen-2-yl)methylene)-2-(piperazin-1-yl)ethanamine], half-maximal inhibition (IC50) required 0.524 mM.

One may read the IC50 as the point on the concentration scale where inhibition reaches its midpoint. The low end stands for inhibition by little substance, the high end for a need for much substance.
